Measurements from patent publication US8173654B2, “Triazolopyridazine compounds” (Janssen Pharmaceutica N.V., priority 2005, dated 2012).

Experiments:
[1] = system: U87MG glioblastoma tumors; experiment: U87MG glioblastoma tumor xenograft model (tumor growth inhibition); assay type: in vivo, athymic nude mice; conditions: for decrease of mean tumor volume compared to vehicle-treated group: Day 21, p<0.001
Procedure: The U87MG glioblsatoma cell line (Piedmont Research Center LLC) expresses the c-Met receptor and responds to Human Growth Factor (HGF). This study investigated whether treatment with an inhibitor of c-Met is efficacious against the U87MG glioblastoma tumor xenograft model. This study utilized a tumor growth inhibition (TGI) assay to test per os (p.o.) compound monotherapy in groups of fifteen nude mice. A control group was treated with vehicle, 20% Hydroxypropyl Beta-Cyclodextrin (HPBCD). All treatments began on Day 1 (D1) in mice bearing established subcutaneous (s.c.) U87MG tumors.
Female athymic nude mice (Harlan) were 10-11 weeks old with a BW range of 18.1-25.0 g on D1 of the study. The animals were fed ad libitum water (reverse osmosis, 1 ppm Cl) and NIH 31 Modified and Irradiated Lab Diet® consisting of 18.0% crude protein, 5.0% crude fat, and 5.0% crude fiber. The mice were housed on irradiated ALPHA-dri® Bed-o-cobs® Laboratory Animal Bedding in static microisolators on a 12-hour light cycle at 21-22° C. (70-72° F.) and 40-60% humidity. All animals were housed in a Laboratory Animal Medicine facility that is fully accredited by the American Association for Assessment and Accreditation of Laboratory Animal Care (AAALAC). All procedures involving animals were conducted in compliance with the NIH Guide for the Care and Use of Laboratory Animals and all protocols were approved by an Internal Animal Care and Use Committee (IACUC).
Xenografts were initiated from U87MG human glioblastoma tumor fragments maintained by serial transplantation in athymic nude mice. Each test mouse received a subcutaneous U87MG tumor fragment (1 mm^3) implanted in the right flank, and the growth of tumors was monitored as the average size approached 200 mm^3. Twelve days later, on Day 1 of the study, the animals were sorted into 4 groups (n=12-15 mice/group) with individual tumor volumes ranging from 172-352 mm^3 and group mean tumor volumes of 216 mm^3. Tumor volume was calculated using the formula:
[formula] where w=width and l=length in mm of the tumor. Tumor weight may be estimated with the assumption that 1 mg is equivalent to 1 mm^3 of tumor volume. Drug Treatment
Dosing solutions of compounds of the present invention were prepared fresh weekly in a vehicle consisting of 20% Hydroxypropyl Beta-Cyclodextrin (HPBCD) in water. In all groups, the dosing volume of 0.2 mL/20-g mouse was scaled to the body weight of each animal. Doses were given to allow for the HCl salt form of the compound.
TGI was calculated from the difference between the median tumor volumes of vehicle-treated and drug-treated mice, expressed as a percentage of the median tumor volume of the vehicle-treated control group, by the following relation:
The MTV (n) is defined as the median tumor volume (MTV) for the number of animals, n, remaining in the study on that day.
Animals were weighed daily for the first five days of the study and then twice weekly. The mice were examined frequently for overt signs of any adverse, drug-related side effects, and clinical signs of toxicity were recorded when observed. Acceptable toxicity is defined as a group mean body-weight (BW) loss of less than 20% during the study, and not more than one treatment-related (TR) death among ten animals. A death is classified as TR if it is attributable to treatment side effects as evidenced by clinical signs and/or necropsy, or due to unknown causes during the dosing period or within 10 days of the last dose. A death is classified as non treatment-related (NTR) if there is no evidence that the death was related to drug side effects. A death is classified as non treatment-related unknown (NTRu) if the cause of death is unknown.
The Mann-Whitney U-test, for analysis of medians, was used to determine the statistical significance of the difference between the MTVs. Prism 3.03 (GraphPad) for Windows was used for the statistical analyses and graphic presentations. […]

[2] = target: T1, c-Met (Homo sapiens, UniProt P08581); experiment: Delfia autophosphorylation kinase assay on the c-Met; assay type: biochemical; parameters: The purified His6 tagged cytoplasmic domain of c-Met was diluted to a concentration of 500 ng/ml; host or cells: Sf9 insect cells (baculovirus, pFastBacHTa); conditions: His6 tagged cytoplasmic domain of c-Met, 1 μM ATP; read-out: cMet Delfia autophos IC-50
How it was run: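 Time-resolved fluorescence tracked autophosphorylation of the His6-tagged c-Met cytoplasmic domain, dispensed at 500 ng/ml onto nickel-chelate plates. Reaction buffer held 1 μM ATP, 10 mM MgCl2, vanadate and DTT at pH 8.0, for 1 h at room temperature.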
Target sequence in this assay (P08581 956-1390 limits assumed): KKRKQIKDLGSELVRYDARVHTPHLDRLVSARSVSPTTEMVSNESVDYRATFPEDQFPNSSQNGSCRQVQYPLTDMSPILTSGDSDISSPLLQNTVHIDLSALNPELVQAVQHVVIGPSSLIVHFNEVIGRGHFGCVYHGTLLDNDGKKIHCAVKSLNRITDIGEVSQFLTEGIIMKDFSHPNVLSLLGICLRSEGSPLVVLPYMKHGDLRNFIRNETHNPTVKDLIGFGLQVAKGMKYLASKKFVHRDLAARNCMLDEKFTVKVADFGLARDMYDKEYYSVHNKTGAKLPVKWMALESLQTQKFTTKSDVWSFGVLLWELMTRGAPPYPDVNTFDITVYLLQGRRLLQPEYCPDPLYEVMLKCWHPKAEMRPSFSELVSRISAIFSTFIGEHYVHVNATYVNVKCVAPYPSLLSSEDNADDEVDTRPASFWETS

[3] = system: HepG2 cells; experiment: HepG2 cellular scatter assay (HGF-induced, RT-CES impedance); assay type: cell-based; conditions: Homo sapiens, 40 ng/ml HGF
Source text: Human Growth Factor (HGF) and its receptor (c-Met) are involved in cellular motility. Indeed HGF was also identified as Scatter Factor (SF), based on its powerful motility effect on certain cell types. Cellular motility is critical for pathological processes of oncologic disease, most importantly, the establishment of metastatic lesions distant from the primary tumor and formation of new blood vessels (angiogenesis). One therapeutic hypothesis is that this movement of cell types may be blunted or eliminated by the use of c-Met kinase inhibitors. (See: Jiang, W. C, Martin, T. A., Parr, C., Davies, G., Matsumoto, K. and Nakamura, T. Critical Reviews in Oncology/Hematology 53 (2005) 35-69. and references cited therein.) It should also be noted that cellular motility, especially with regard to angiogenesis, is important in other disease states.
Cellular scatter was measured with a Real-Time Cell Electronic Sensing system (RT-CES), from ACEA Biosciences Inc. (San Diego, Calif.). The RT-CES system uses specialized RT-ACE microtiter plates (cat:RCD96, ACEA Biosciences Inc.) to non-invasively quantify cellular status in real-time. The interaction of cells with the surface of the plates, which are integrated with microelectronic sensor arrays, leads to the generation of a cell-electrode impedance response. A higher impedance value indicates more cell attachment and thus less cellular scatter.
50 μl of Assay Media (MEM supplemented with 10% FBS, 2 mM L-glutamine, 1.5 g/L sodium bicarbonate, 1 mM sodium pyruvate, and 0.1 mM non-essential amino acids) was added into 96-well RT-ACE plates and recorded for 30 min on the RT-CES. 50 μl of HepG2 cells (cat: HB-8065, ATCC) were added into each well ([…]). The plate was read in RT-CES and incubated for 20-24 hours. After the 20-24 hours incubation, 50 μl of Assay Media containing different concentrations of testing compounds was added into each well and incubated for 1 hour. Finally, 50 μl of Assay Media containing 160 ng/ml of HGF was added into each well (40 ng/ml in 200 μl). The plate was incubated and read in the RT-CES for 20-24 hours, with a record time every 15 minutes. The positive control was HGF without compounds and negative control was no-HGF without compound. All determinations were performed in duplicate wells and IC50 values were calculated using GraphPad Prism software (GraphPad Software; San Diego, Calif.).

[4] = target: T1, c-Met; experiment: Cell based ELISA assay for HGF stimulated c-Met phosphorylation in S114 cells; parameters: expressed in transfected cells; host or cells: S114 (murine NIH 3T3 derived); conditions: read-out: c-Met Cell ELISA IC-50
Target sequence in this assay (P08581 25-1390): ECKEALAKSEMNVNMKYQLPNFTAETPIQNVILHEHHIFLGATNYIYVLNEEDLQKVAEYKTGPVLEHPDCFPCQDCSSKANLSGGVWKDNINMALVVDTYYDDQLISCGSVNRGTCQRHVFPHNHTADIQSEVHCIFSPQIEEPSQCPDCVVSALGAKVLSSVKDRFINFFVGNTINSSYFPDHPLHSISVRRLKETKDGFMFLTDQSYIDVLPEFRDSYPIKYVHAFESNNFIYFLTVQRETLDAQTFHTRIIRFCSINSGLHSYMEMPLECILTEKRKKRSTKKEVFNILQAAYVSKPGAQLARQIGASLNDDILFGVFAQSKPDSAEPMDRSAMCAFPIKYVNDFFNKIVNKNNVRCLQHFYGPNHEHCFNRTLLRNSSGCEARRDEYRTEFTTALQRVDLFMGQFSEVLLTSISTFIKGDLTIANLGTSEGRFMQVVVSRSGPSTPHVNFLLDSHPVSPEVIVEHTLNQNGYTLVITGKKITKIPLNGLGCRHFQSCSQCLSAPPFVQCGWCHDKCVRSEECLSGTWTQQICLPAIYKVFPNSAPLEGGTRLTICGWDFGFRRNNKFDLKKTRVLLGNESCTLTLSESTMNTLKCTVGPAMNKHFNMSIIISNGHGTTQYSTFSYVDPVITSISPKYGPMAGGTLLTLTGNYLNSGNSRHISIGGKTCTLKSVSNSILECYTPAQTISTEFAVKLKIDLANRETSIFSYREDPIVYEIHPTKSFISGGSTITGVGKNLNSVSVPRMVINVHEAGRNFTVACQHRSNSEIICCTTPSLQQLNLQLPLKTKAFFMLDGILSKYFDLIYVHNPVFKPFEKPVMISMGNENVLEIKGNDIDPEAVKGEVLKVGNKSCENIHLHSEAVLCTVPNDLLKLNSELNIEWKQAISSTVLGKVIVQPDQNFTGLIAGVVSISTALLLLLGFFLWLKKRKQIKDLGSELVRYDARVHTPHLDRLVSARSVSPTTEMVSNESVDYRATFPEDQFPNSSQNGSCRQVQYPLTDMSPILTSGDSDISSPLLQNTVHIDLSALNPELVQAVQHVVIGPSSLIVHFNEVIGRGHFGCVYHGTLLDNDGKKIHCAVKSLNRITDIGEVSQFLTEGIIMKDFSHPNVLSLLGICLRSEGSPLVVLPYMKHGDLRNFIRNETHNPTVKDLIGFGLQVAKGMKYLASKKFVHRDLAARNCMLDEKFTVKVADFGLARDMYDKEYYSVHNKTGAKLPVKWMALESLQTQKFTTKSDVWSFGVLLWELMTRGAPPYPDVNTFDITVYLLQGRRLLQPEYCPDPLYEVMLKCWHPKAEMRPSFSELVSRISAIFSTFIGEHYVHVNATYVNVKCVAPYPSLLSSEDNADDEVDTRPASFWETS

| Structure (SMILES) | IC50 [2] | IC50 [3] | IC50 [4] | decrease of mean tumor volume compared to vehicle-treated group ([1]; 30 mg/kg p.o. b.i.d., 21 consecutive days) | decrease of mean tumor volume compared to vehicle-treated group ([1]; 50 mg/kg p.o. b.i.d., 21 consecutive days) | tumor regression ([1]; 50 mg/kg p.o. b.i.d., 21 days) | inhibition of growth of U87MG tumors ([1]; 30 and 50 mg/kg p.o. b.i.d., 21 consecutive days) |
| --- | --- | --- | --- | --- | --- | --- | --- |
| Cn1cc(-c2ccc3nnc(Cc4ccc5ncccc5c4)n3n2)cn1 [Example 1, 6-[6-(1-Methyl-1H-pyrazol-4-yl)-[1,2,4]triazolo[4,3-b]pyridazin-3-ylmethyl]-quinoline] |  |  |  | 66% | 97% | Tumor regression was observed | statistically significant, dose-dependent inhibition of growth |
| FC(F)(c1ccc2ncccc2c1)c1nnc2ccc(-c3ccncc3)nn12 [Example 60, 6-[Difluoro-(6-pyridin-4-yl-[1,2,4]triazolo[4,3-b]pyridazin-3-yl)-methyl]-quinoline] | 1 nM | 287 nM | 12 nM |  |  |  |  |
| Cc1cc(-c2ccc3nnc(C(F)(F)c4ccc5ncccc5c4)n3n2)ccn1 [Example 86, 6-{Difluoro-[6-(2-methyl-pyridin-4-yl)-[1,2,4]triazolo[4,3-b]pyridazin-3-yl]-methyl}-quinoline] | 2.8 nM | 715 nM | 34 nM |  |  |  |  |
| CN1CCN(C(=O)c2ccc(-c3ccc4nnc(C(F)(F)c5ccc6ncccc6c5)n4n3)s2)CC1 [Example 97, {5-[3-(Difluoro-quinolin-6-yl-methyl)-[1,2,4]triazolo[4,3-b]pyridazin-6-yl]thiophen-2-yl}-(4-methyl-piperazin-1-yl)-methanone] | 3 nM | 1160 nM | 3 nM |  |  |  |  |
| CS(=O)(=O)N1CCN(C(=O)c2ccc(-c3ccc4nnc(C(F)(F)c5ccc6ncccc6c5)n4n3)s2)CC1 [Example 98, {5-[3-(Difluoro-quinolin-6-yl-methyl)-[1,2,4]triazolo[4,3-b]pyridazin-6-yl]-thiophen-2-yl}-(4-methanesulfonyl-piperazin-1-yl)-methanone] | 2 nM | 64 nM | 4 nM |  |  |  |  |
| CS(=O)(=O)n1cc(-c2ccc3nnc(C(F)(F)c4ccc5ncccc5c4)n3n2)cn1 [Example 99, 6-{Difluoro-[6-(1-methanesulfonyl-1H-pyrazol-4-yl)-[1,2,4]triazolo[4,3-b]pyridazin-3-yl]-methyl}-quinoline] | 2 nM | 1100 nM | 34 nM |  |  |  |  |
| FC(F)(c1ccc2ncccc2c1)c1nnc2ccc(-c3ccnc(Cl)c3)nn12 [Example 100b, 6-{[6-(2-Chloro-pyridin-4-yl)-[1,2,4]triazolo[4,3-b]pyridazin-3-yl]-difluoro-methyl}-quinoline] | 2 nM |  | 34 nM |  |  |  |  |

Second part, led by results:

| IC50 [2] | IC50 [3] | IC50 [4] | Structure (SMILES) | decrease of mean tumor volume compared to vehicle-treated group ([1]; 30 mg/kg p.o. b.i.d., 21 consecutive days) | decrease of mean tumor volume compared to vehicle-treated group ([1]; 50 mg/kg p.o. b.i.d., 21 consecutive days) | tumor regression ([1]; 50 mg/kg p.o. b.i.d., 21 days) | inhibition of growth of U87MG tumors ([1]; 30 and 50 mg/kg p.o. b.i.d., 21 consecutive days) |
| --- | --- | --- | --- | --- | --- | --- | --- |
| 1 nM |  | 120 nM | N#Cc1cc(-c2ccc3nnc(C(F)(F)c4ccc5ncccc5c4)n3n2)ccn1 [Example 101, 4-[3-(Difluoro-quinolin-6-yl-methyl)-[1,2,4]triazolo[4,3-b]pyridazin-6-yl]-pyridine-2-carbonitrile] |  |  |  |  |
| 3 nM |  | 79 nM | CN1CCN(C(=O)c2ccc(-c3ccc4nnc(C(F)(F)c5ccc6occc6c5)n4n3)s2)CC1 [Example 102, {5-[3-(Benzofuran-5-yl-difluoro-methyl)-[1,2,4]triazolo[4,3-b]pyridazin-6-yl]-thiophen-2-yl}-(4-methyl-piperazin-1-yl)-methanone] |  |  |  |  |
| 4 nM |  | 210 nM | CN1CCN(C(=O)c2ccc(-c3ccc4nnc(C(F)(F)c5ccc6c(c5)CCO6)n4n3)s2)CC1 [Example 103, (5-{3-[(2,3-Dihydro-benzofuran-5-yl)-difluoro-methyl]-[1,2,4]triazolo[4,3-b]pyridazin-6-yl}-thiophen-2-yl)-(4-methyl-piperazin-1-yl)-methanone] |  |  |  |  |
| 2 nM | 543 nM | 37 nM | CCCc1ncc(-c2ccc3nnc(C(F)(F)c4ccc5ncccc5c4)n3n2)s1 [Example 104, 6-{Difluoro-[6-(2-propyl-thiazol-5-yl)-[1,2,4]triazolo[4,3-b]pyridazin-3-yl]-methyl}-quinoline] |  |  |  |  |
